Experimental data as given in BindingDB's records for doi:10.1101/2020.12.16.422677 (Fraunhofer Institute for Translational Medicine and …, 2020).

These molecules were tested against Replicase polyprotein 1ab (Severe acute respiratory syndrome coronavirus 2, UniProt P0DTD1) (assay: Hit profiling assay with DTT).

`Cc1c(-c2cnccn2)ssc1=S` [OLTIPRAZ] and `Cn1sc(=O)n(Cc2ccccc2)c1=O` [4-Benzyl-2-methyl-1,2,4-thiadiazolidine-3,5-dione] are within 1.5-fold of each other in IC50: 110 nM for the first, 140 nM for the second.

`O=C1C=Cc2cc(Br)ccc2C1=O` [Bonaphthone] and `CCOC(=O)Cc1ccc(-c2ccccc2)cc1` [Felbinac ethyl] are within 1.5-fold of each other in IC50: 90 nM for the first, 80 nM for the second.

Compared with `COC(=O)CC[C@H](NC(=O)[C@H](CC(=O)OC)NC(=O)OCc1ccccc1)C(=O)N[C@H](C(=O)N[C@@H](CC(=O)OC)C(=O)CF)C(C)C` [US9345789, Z-DEVD-FMK], `CN1CCN(C(c2ccc(C(F)(F)F)cc2)c2ccc3cccnc3c2O)CC1` (configuration not stated) is 130-fold higher in IC50: 10 nM for the first, 1340 nM for the second.

In the case of `N#CSc1cc(SC#N)c(N)nc1N` [PR-619], the IC50 is reported as 4410 nM.
